System: HT-29 cells (colon cancer cells)
Assay: In vitro assay for protection of HT-29 cells from necroptosis (TNFα/Smac mimetic/Z-VAD-FMK, CCK-8)
Type: cell-based
Conditions: Homo sapiens, Protective Activity Against Necroptosis, TNFα/Smac mimetic/Z-VAD-FMK induced, 24 h
Text: Z′=1−3(SDmin+SDmax)/(AVEmax−AVEmin) • wherein: • Min is the positive control Data, and Max is the negative control DMSO Data. • SD is the standard deviation, and AVE is the average. In Vitro Assay for Protection of HT-29 Cells from Necroptosis:
1) Experimental Materials
DMEM medium was purchased from Gibco; penicillin-streptomycin was purchased from Hyclone; TNFα was purchased from Peprotech; Smac mimetic and Z-VAD-FMK were purchased from Selleck; and CCK-8 was purchased from Medchem Express.
HT-29 cells (colon cancer cells) were cultured in DMEM+10% FBS+penicillin/streptomycin. For the experiment, HT-29 cells in the logarithmic phase were collected and seeded into 96-well plates at a specific density (typically 8×10^3 cells/well for adherent cells). The cells were cultured overnight in an incubator at 37° C. with 5% CO2. On the following day, the test compound was diluted with culture medium to the corresponding concentrations and added into the 96-well plate, with 3 replicate wells for each sample. A solvent control group and a blank control group containing only culture medium were set simultaneously. The spiked cells were induced with a combination of TNFα/Smac mimetic/Z-VAD-FMK for 24 h. Subsequently, 10 μL of CCK8 solution was added to each well, and the cells were incubated in an incubator for 1-3 h. Absorbance was measured at […] using a microplate reader, and the cell necrosis protection rate of the drug was calculated using the following formula:
Cell necrosis protection rate=[(X−C0)/(C−C0)]×100% • where C, C0, and X represent the average absorbance values of the solvent control group, the blank control group, and the drug treatment group, respectively. Finally, a cell viability curve was fitted using Graphpad Prism 5.0 software, and the EC50 value of the test compound for inhibiting necroptosis was calculated.

Row | Compound | EC50 [nM]
1 | Cn1cc(C(=O)Nc2nc3cc(-c4ccc5c(c4)c(C(=O)N[C@@H](CF)c4ccc(F)cc4)cn5C)ccn3n2)cn1 [Compound 111] | 1 to 10
2 | Cn1cc(C(=O)N[C@H]2CCCc3cc(F)ccc32)c2cc(-c3ccn4nc(NC(=O)[C@H]5CCCO5)nc4c3)ccc21 [Compound 137] | 10 to 100
3 | CC1CN(CC(=O)Nc2nc3cc(-c4ccc5c(c4)c(C(=O)N[C@@H](C)c4ccc(Cl)cc4)cn5C)ccn3n2)CCO1 (stereo partly drawn) [Compound 84] | < 1
4 | C[C@H](NC(=O)c1nn(C)c2ccc(-c3ccn4nc(NC(=O)c5cnn(C)c5)nc4c3)cc12)c1ccc(F)cc1 [Compound 191] | < 1
5 | C[C@H](NC(=O)c1cn(C)c2ccc(-c3ccn4nc(NC(=O)C5CC5)nc4c3)cc12)C(C)(C)C [Compound 93] | 100 to 1000
6 | C[C@H](NC(=O)c1cn(C)c2ccc(-c3ccn4nc(NC(=O)CC(=O)O)nc4c3)cc12)c1ccc(F)cc1 [Compound 63] | 1000 to 10000
7 | C[C@H](NC(=O)c1nn(C)c2ccc(-c3ccn4nc(NC(=O)CN5CCOCC5)nc4c3)cc12)c1ccc(F)cc1 [Compound 196] | < 1
8 | C[C@H](NC(=O)c1cn(C)c2ccc(-c3ccn4nc(NC(=O)CN5CCN(C)CC5)nc4c3)cc12)c1ccc(F)cc1 [Compound 51] | < 1
9 | Cn1cc(C(=O)N2CCOC[C@@H]2c2ccc(F)cc2)c2cc(-c3ccn4nc(NC(=O)[C@H]5CCCO5)nc4c3)ccc21 [Compound 150] | < 1
10 | C[C@H](NC(=O)c1cn(C)c2ccc(-c3ccn4nc(N5CCOCC5=O)nc4c3)cc12)c1ccc(F)cc1 [Compound 218] | 10 to 100
11 | CN(C)CC(=O)Nc1nc2cc(-c3ccc4c(c3)c(C(=O)N[C@@H](CF)c3ccc(F)cc3)cn4C)ccn2n1 [Compound 101] | < 1
12 | COCCOCCOCC(=O)Nc1nc2cc(-c3ccc4c(c3)c(C(=O)N[C@@H](C)c3ccc(F)cc3)cn4C)ccn2n1 [Compound 25] | < 1
13 | C[C@H](NC(=O)c1cn(C)c2ccc(-c3ccn4nc(NC(=O)CN5CC[C@@H](O)C5)nc4c3)cc12)c1ccc(F)cc1 [Compound 12] | < 1
14 | Cn1cc(C(=O)N[C@@H](CF)c2ccc(F)cc2)c2cc(-c3ccn4nc(NC(=O)CCl)nc4c3)ccc21 [Compound 94] | < 1
15 | C[C@H](NC(=O)c1cn(C)c2ccc(-c3ccn4nc(NC(=O)CN5CCC[C@H](O)C5)nc4c3)cc12)c1ccc(F)cc1 [Compound 7] | < 1
16 | C[C@H](NC(=O)c1cn(C)c2ccc(-c3ccn4nc(NC(=O)CN5CCCOCC5)nc4c3)cc12)c1ccc(F)cc1 [Compound 30] | < 1
17 | C[C@H](NC(=O)c1cn(C)c2ccc(-c3ccn4nc(NC(=O)Cn5ccnc5)nc4c3)cc12)c1ccc(F)cc1 [Compound 48] | 10 to 100
18 | C[C@H](NC(=O)c1cn(C)c2ccc(-c3ccn4nc(NC(=O)CC5CCCCC5)nc4c3)cc12)c1ccc(F)cc1 [Compound 13] | < 1
19 | CC(=O)Nc1nc2cc(-c3ccc4c(c3)c(C(=O)N[C@@H]3C[C@H]3c3ccc(F)c(F)c3)cn4C)ccn2n1 [Compound 125] | 1000 to 10000

Row | Compound | EC50 [nM]
20 | COCC(=O)Nc1nc2cc(-c3ccc4c(c3)c(C(=O)N[C@H](c3ccc(F)cc3)C(F)F)cn4C)ccn2n1 [Compound 166] | < 1
21 | CN1CC[C@@H](C(=O)Nc2nc3cc(-c4ccc5c(c4)c(C(=O)N[C@@H](CF)c4ccc(F)cc4)cn5C)ccn3n2)C1 [Compound 100] | < 1
22 | Cn1cc(C(=O)Nc2nc3cc(-c4ccc5c(c4)c(C(=O)N[C@H]4CCCc6cc(F)ccc64)cn5C)ccn3n2)cn1 [Compound 141] | 1 to 10
23 | C[C@@H](c1ccc(F)cc1)N(C)C(=O)c1cn(C)c2ccc(-c3ccn4nc(NC(=O)[C@@H]5CCCO5)nc4c3)cc12 [Compound 176] | < 1
24 | Cn1nc(C(=O)N[C@@H](CF)c2ccc(F)cc2)c2cc(-c3ccn4nc(NC(=O)C5CC5)nc4c3)ccc21 [Compound 190] | < 1
25 | Cn1cc(C2=NC(c3ccc(F)cc3)CO2)c2cc(-c3ccn4nc(NC(=O)C5CC5)nc4c3)ccc21 (stereo not drawn) [Compound 212] | 10 to 100
26 | COC1CCN(CC(=O)Nc2nc3cc(-c4ccc5c(c4)c(C(=O)N[C@@H](C)c4ccc(F)cc4)cn5C)ccn3n2)C1 (stereo partly drawn) [Compound 19] | < 1
27 | Cn1cc(C(=O)N[C@H]2CCCc3cc(F)ccc32)c2cc(-c3ccn4nc(NC(=O)[C@@H]5CCCO5)nc4c3)ccc21 [Compound 139] | 1 to 10
28 | CC(C(=O)Nc1cn(C)c2ccc(-c3ccn4nc(NC(=O)[C@H]5CCCO5)nc4c3)cc12)c1ccc(F)cc1 (stereo partly drawn) [Compound 178] | 100 to 1000
29 | CN1CCN(C(=O)Nc2nc3cc(-c4ccc5c(c4)c(C(=O)N[C@@H](CF)c4ccc(F)cc4)cn5C)ccn3n2)CC1 [Compound 95] | < 1
30 | CC(=O)Nc1nc2cc(-c3ccc4c(c3)c(C(=O)N[C@H]3CCCc5ccc(F)cc53)cn4C)ccn2n1 [Compound 145] | 1 to 10
31 | C[C@H](NC(=O)c1cn(C)c2ccc(-c3ccn4nc(NC(=O)CN5CCOC[C@H]5C)nc4c3)cc12)c1ccc(Cl)cc1 [Compound 81] | < 1
32 | C[C@H](NC(=O)c1cn(C)c2ccc(-c3ccn4nc(NC(=O)CN5CCS(=O)(=O)CC5)nc4c3)cc12)c1ccc(F)cc1 [Compound 28] | 1 to 10
33 | C[C@H](NC(=O)c1cn(C)c2ccc(-c3ccn4nc(NC(=O)C5CC5F)nc4c3)cc12)C(C)(C)C (stereo partly drawn) [Compound 92] | 100 to 1000
34 | Cn1cc(C2=NC(c3ccc(F)cc3)CO2)c2cc(-c3ccn4nc(NC(=O)C5CC5F)nc4c3)ccc21 (stereo not drawn) [Compound 211] | 10 to 100
35 | C[C@H](NC(=O)c1cn(C)c2ccc(-c3ccn4nc(NC(=O)CN5CCC[C@@H](O)C5)nc4c3)cc12)c1ccc(F)cc1 [Compound 49] | 1 to 10
36 | Cn1cc(C(=O)N[C@H]2CCCc3cc(F)ccc32)c2cc(-c3ccn4nc(NC(=O)CC#N)nc4c3)ccc21 [Compound 142] | 10 to 100
37 | Cn1cc(C(=O)N[C@@H](CF)c2ccc(F)cc2)c2cc(-c3ccn4nc(NC(=O)C5CC5F)nc4c3)ccc21 (stereo partly drawn) [Compound 113] | 1 to 10
38 | C[C@H](NC(=O)c1cn(C)c2ccc(-c3ccn4nc(NC(=O)CN5CCCC(CO)C5)nc4c3)cc12)c1ccc(F)cc1 (stereo partly drawn) [Compound 44] | 1 to 10

Row | Compound | EC50 [nM]
39 | CC(c1ccc(F)cc1)n1cnnc1-c1cn(C)c2ccc(-c3ccn4nc(NC(=O)C5CCOC5)nc4c3)cc12 (stereo not drawn) [Compound 217] | 10 to 100
40 | Cn1cc(C(=O)N2CC(F)CC2c2ccc(F)cc2)c2cc(-c3ccn4nc(NC(=O)C5CCCO5)nc4c3)ccc21 (stereo not drawn) [Compound 157] | < 1
41 | CC(C(=O)Nc1nn(C)c2ccc(-c3ccn4nc(NC(=O)C5CC5)nc4c3)cc12)c1ccc(F)cc1 (stereo not drawn) [Compound 182] | 10 to 100
42 | C[C@H](NC(=O)c1cn(C)c2ccc(-c3ccn4nc(NC(=O)C(=O)N5CCOCC5)nc4c3)cc12)c1ccc(F)cc1 [Compound 9] | < 1
43 | CC(=O)N1CCN(CC(=O)Nc2nc3cc(-c4ccc5c(c4)c(C(=O)N[C@@H](C)c4ccc(F)cc4)cn5C)ccn3n2)CC1 [Compound 53] | < 1
44 | CC(c1ccc(F)cc1)n1cnc(-c2cn(C)c3ccc(-c4ccn5nc(NC(=O)C6CC6)nc5c4)cc23)n1 (stereo not drawn) [Compound 210] | 100 to 1000
45 | COCCn1cc(C(=O)N[C@@H](CF)c2ccc(F)cc2)c2cc(-c3ccn4nc(NC(=O)N5CCOCC5)nc4c3)ccc21 [Compound 214] | 10 to 100
46 | C[C@H](NC(=O)c1nn(C)c2ccc(-c3ccn4nc(NC(=O)[C@H]5CCCO5)nc4c3)cc12)c1ccc(F)cc1 [Compound 193] | < 1
47 | C[C@H](NC(=O)c1cn(C)c2ccc(-c3ccn4nc(NC(=O)CN5CCOC[C@@H]5C)nc4c3)cc12)c1ccc(Cl)cc1 [Compound 82] | < 1
48 | CC(C(=O)Nc1nc2cc(-c3ccc4c(c3)c(C(=O)N[C@@H](C)c3ccc(F)cc3)cn4C)ccn2n1)N1CC[C@H](O)C1 (stereo partly drawn) [Compound 1] | 10 to 100
49 | Cn1cc(C(=O)NC2(c3ccc(F)cc3)COC2)c2cc(-c3ccn4nc(NC(=O)C5CC5)nc4c3)ccc21 [Compound 148] | 10 to 100
50 | CC(c1ccc(F)cc1)n1cnc(-c2cn(C)c3ccc(-c4ccn5nc(NC(=O)c6cnn(C)c6)nc5c4)cc23)n1 (stereo not drawn) [Compound 208] | 100 to 1000
51 | Cn1cc(C(=O)N[C@H]2CCc3ccc(F)cc32)c2cc(-c3ccn4nc(NC(=O)[C@H]5CCCO5)nc4c3)ccc21 [Compound 121] | < 1
52 | C[C@H](NC(=O)c1cn(C)c2ccc(-c3ccn4nc(NC(=O)N5CCOCC5)nc4c3)cc12)c1cccc(F)c1 [Compound 118] | < 1
53 | C[C@H](NC(=O)c1cn(C)c2ccc(-c3ccn4nc(NC(=O)CN(C)CCO)nc4c3)cc12)c1ccc(F)cc1 [Compound 74] | < 1
54 | C[C@@H](c1ccc(F)cc1)N(C)C(=O)c1cn(C)c2ccc(-c3ccn4nc(NC(=O)CN(C)C)nc4c3)cc12 [Compound 174] | < 1
55 | C[C@H](NC(=O)c1cn(C)c2ccc(-c3ccn4nc(NC(=O)CN(C)C)nc4c3)cc12)c1ccc(Cl)cc1 [Compound 78] | < 1
56 | Cn1cc(C(=O)N2CCOC[C@@H]2c2ccc(F)cc2)c2cc(-c3ccn4nc(NC(=O)C5CC5)nc4c3)ccc21 [Compound 151] | < 1
57 | C[C@H](NC(=O)c1cn(C)c2ccc(-c3ccn4nc(NC(=O)CN5CC(C)(C#N)C5)nc4c3)cc12)c1ccc(F)cc1 [Compound 29] | < 1

— patent publication US20260327224A1, “SUBSTITUTED PYRIDOTRIAZOLE COMPOUND, AND PREPARATION METHOD THEREFOR AND USE THEREOF” (ORIGIANT PHARMACEUTICAL CO., LTD., priority 2023, published 2026)
